Legend:
[1] = test system: spontaneously hypertensive rats; test: lowering of systolic blood pressure in spontaneously hypertensive rats; type: in vivo, rat; conditions: SHR, oral, prazosin 0.1 mg/kg, alone or combined, mean ± SE
[2] = molecular target: cyclic AMP-phosphodiesterase; test: in vitro inhibition of cyclic AMP-phosphodiesterase; type: biochemical; conditions: 50% inhibition of cyclic AMP-phosphodiesterase activity on 1 micromolar substrate
Description: In general, the specific cyclic AMP-phosphodiesterase inhibitors of this invention, (i.e., the above-described cardiotonic agents) when conjunctively administered with prazosin to effect their synergistic activity, are administered at about the threshold dose to exert a blood pressure lowering effect, i.e., the minimum dose it takes to exert a statistically significant lowering of blood pressure. This threshold dose is readily determined by standard laboratory methodology. For example, assays such as the Spontaneously Hypertensive Rat and the Anesthesized Dog for testing blood pressure effects may readily be employed to determine the threshold dose of lowering blood pressure. The threshold dose may also be approximately calculated from an in vitro IC50 value. For this purpose the in vitro IC50 value is the micromolar quantity of compound needed to effect a 50% inhibition of the activity of cyclic AMP-phosphodiesterase on one (1) micromolar quantity of substrate. This IC50 value, when multiplied by the appropriate fraction for intravenous and oral administrations will yield the dosage range, in mg per kg of body weight, necessary to effect its synergism with prazosin.
On the basis of spontaneously hypertensive rat data the multiplying factor is 1/10 to 1 for the intravenous dose and 1 to 10 for the oral dose. […]

Structure (SMILES)	systolic blood pressure change from control at 1 hour ([1]; Table 2, amrinone 55 mg/kg) [mmHg]	systolic blood pressure change from control at 2 hours ([1]; Table 2, amrinone 55 mg/kg) [mmHg]	systolic blood pressure change from control at 3 hours ([1]; Table 2, amrinone 55 mg/kg) [mmHg]	systolic blood pressure change from control at 4 hours ([1]; Table 2, amrinone 55 mg/kg) [mmHg]	IC50 [2] [µM]	systolic blood pressure change from control at 1 hour ([1]; Table 1, piroximone 25 mg/kg) [mmHg]	systolic blood pressure change from control at 2 hours ([1]; Table 1, piroximone 25 mg/kg) [mmHg]	systolic blood pressure change from control at 3 hours ([1]; Table 1, piroximone 25 mg/kg) [mmHg]	systolic blood pressure change from control at 4 hours ([1]; Table 1, piroximone 25 mg/kg) [mmHg]
Nc1cc(-c2ccncc2)c[nH]c1=O [amrinone]	-26 ± 6	-23 ± 5	-21 ± 8	-23 ± 7	–	–	–	–	–
CCc1[nH]c(=O)[nH]c1C(=O)c1ccncc1 [piroximone]	–	–	–	–	26	-23 ± 5	-17 ± 6	-18 ± 7	-20 ± 5
COc1cc2nc(N3CCN(C(=O)c4ccco4)CC3)nc(N)c2cc1OC [prazosin]	-32 ± 3	-31 ± 4	-32 ± 4	-31 ± 4	–	-40 ± 4	-40 ± 4	-42 ± 4	-35 ± 5

— patent US4868182A, “Enhancement of prazosin” (Merrell Dow Pharmaceuticals Inc., priority 1988, dated 1989)
